Experiments:
[1] = system: PCP induced deficits in the 5-CSRT task in DBA/2N mice; experiment: Cognitive impairment in schizophrenia: PCP-induced deficits in five-choice serial reaction time task; assay type: in vivo, mouse
[2] = biological target: T1, recombinant Nav 1.3 channels (Homo sapiens, UniProt Q9NY46); experiment: Patch clamp studies of sodium currents inhibition in HEK293 cells; assay type: cell-based; conditions: tonic block, preconditioning −50 mV (half maximal steady-state inactivated condition); read-out: IC50 (Vhalf)
T1 construct: expressed in transfected cells; host or cells: HEK293 cells
Description: Cells and methods: Functional inhibition of the sodium currents was studied using whole cell patch clamp methods (Hamill O. P., Marty A., Neher E., Sakmann B., Sigworth F. J., Pflugers Arch. (1981) 391 (2): 85-100) on HEK293 cells expressing recombinant Nav 1.3 channels. Membrane currents were recorded as described in the example above.
For sodium current recording control bath solution contained (mM): NaCl (80), Choline chloride (38), CaCl2 (1.3), MgCl2 (2), KCl (2), CdCl2 (0.4), NiCl2 (0.3), TEA.Cl (20), Hepes (10), Glucose (10). Internal pipette solution consisted of (mM): EGTA (10), NaCl (10), CaCl2 (1.3), MgCl2 (2), Hepes (10), CsF (130), MgATP (1).
Compounds were dissolved as 20 mM stock solutions in DMSO and then diluted to the final concentration in the external solutions.
Voltage protocols and data analyses: A two-step protocol was used to determine the voltage dependence of the block:
sodium current was activated by a 30 ms step pulse to 10 mV (test pulse) from a 2000 ms preconditioning potential of −100 mV (resting condition) or −50 mV (half maximal steady-state inactivated condition), respectively.
The amplitude of sodium current peaks evoked by the respective test pulses at a frequency of 0.06 Hz were measured before and after exposure to the test substance. Tonic block of currents was calculated as the difference between the Nacurrent peak measured at the end of a stabilization period in the control external bath solution and the current peak measured at the end of test substance perfusion period (when steady state is reached) divided by control peaks. Drug concentration-inhibition curves were obtained by plotting tonic blocks versus drug concentrations. Dose-response curves were fitted to the tonic block data, according to the logistic equation: y=A2+(A1−A2)/[1+(x/IC50)^p]. A1 and A2 are fixed values of 0 and 1 corresponding to 0 and 100% current inhibition, x is the drug concentration, IC50 is the drug concentration resulting in 50% current inhibition and p is the corresponding slope factor.

[3] = system: amphetamine-chlordiazepoxide induced increase in locomotor activity in mice; experiment: Amphetamine and chlordiazepoxide-induced hyperlocomotion in mice; assay type: in vivo, mouse; conditions: test compound 5 mg/kg given twice, FIG. 1
Description: In this model, mice are treated with a mixture of d-amphetamine plus an anxiolytic dose of the benzodiazepine, chlordiazepoxide (Rushton R, Steinberg H. Combined effects of chlordiazepoxide and d-amphetamine on activity of rats in an unfamiliar environment. Nature 1966; 211:1312-3; R. Arban, G. Maraia, K. Brackenborough, L. Winyard, A. Wilson, P. Gerrard, C. Large. Evaluation of the effects of lamotrigine, valproate and carbamazepine in a rodent model of mania Behavioural Brain Research, 158: 123-132). The model has been claimed to mimic some aspects of mania in bipolar disorder. Importantly, the hyperactivity induced by the mixture of d-amphetamine and chlordiazepoxide could be prevented by prior administration of the established mood stabilizer, lithium, as well as other mood stabilizers drugs (e.g. magnesium valproate and carbamazepine). […]
Amphetamine (AMP) (2.5 mg/kg) plus chlordiazepoxide hydrochloride (CDZ) (3 mg/kg/ip) were administered to male Albino Swiss mice (25-32 g) in a volume of 10 ml/kg. The locomotor activity was recorded using Opto-M3 System (Columbus Instruments) which is multi-channel activity monitor. […] The locomotor activity (ambulation and total activity count) was evaluated for 30 min. […]
Statistical analysis: the data were evaluated by an analysis of variance (ANOVA), followed, when appropriate, by individual comparison with the control using Dunnett's test. […]

L-type calcium channels = assay type: cell-based, mouse; conditions: AtT20/D16v-F2 cells, ω-conotoxin 1 μM, 100 mM KCl depolarization
[4] = 10 mg/Kg i.p. + PCP (1.5 mg/kg)

T1 sequence (Q9NY46 whole entry): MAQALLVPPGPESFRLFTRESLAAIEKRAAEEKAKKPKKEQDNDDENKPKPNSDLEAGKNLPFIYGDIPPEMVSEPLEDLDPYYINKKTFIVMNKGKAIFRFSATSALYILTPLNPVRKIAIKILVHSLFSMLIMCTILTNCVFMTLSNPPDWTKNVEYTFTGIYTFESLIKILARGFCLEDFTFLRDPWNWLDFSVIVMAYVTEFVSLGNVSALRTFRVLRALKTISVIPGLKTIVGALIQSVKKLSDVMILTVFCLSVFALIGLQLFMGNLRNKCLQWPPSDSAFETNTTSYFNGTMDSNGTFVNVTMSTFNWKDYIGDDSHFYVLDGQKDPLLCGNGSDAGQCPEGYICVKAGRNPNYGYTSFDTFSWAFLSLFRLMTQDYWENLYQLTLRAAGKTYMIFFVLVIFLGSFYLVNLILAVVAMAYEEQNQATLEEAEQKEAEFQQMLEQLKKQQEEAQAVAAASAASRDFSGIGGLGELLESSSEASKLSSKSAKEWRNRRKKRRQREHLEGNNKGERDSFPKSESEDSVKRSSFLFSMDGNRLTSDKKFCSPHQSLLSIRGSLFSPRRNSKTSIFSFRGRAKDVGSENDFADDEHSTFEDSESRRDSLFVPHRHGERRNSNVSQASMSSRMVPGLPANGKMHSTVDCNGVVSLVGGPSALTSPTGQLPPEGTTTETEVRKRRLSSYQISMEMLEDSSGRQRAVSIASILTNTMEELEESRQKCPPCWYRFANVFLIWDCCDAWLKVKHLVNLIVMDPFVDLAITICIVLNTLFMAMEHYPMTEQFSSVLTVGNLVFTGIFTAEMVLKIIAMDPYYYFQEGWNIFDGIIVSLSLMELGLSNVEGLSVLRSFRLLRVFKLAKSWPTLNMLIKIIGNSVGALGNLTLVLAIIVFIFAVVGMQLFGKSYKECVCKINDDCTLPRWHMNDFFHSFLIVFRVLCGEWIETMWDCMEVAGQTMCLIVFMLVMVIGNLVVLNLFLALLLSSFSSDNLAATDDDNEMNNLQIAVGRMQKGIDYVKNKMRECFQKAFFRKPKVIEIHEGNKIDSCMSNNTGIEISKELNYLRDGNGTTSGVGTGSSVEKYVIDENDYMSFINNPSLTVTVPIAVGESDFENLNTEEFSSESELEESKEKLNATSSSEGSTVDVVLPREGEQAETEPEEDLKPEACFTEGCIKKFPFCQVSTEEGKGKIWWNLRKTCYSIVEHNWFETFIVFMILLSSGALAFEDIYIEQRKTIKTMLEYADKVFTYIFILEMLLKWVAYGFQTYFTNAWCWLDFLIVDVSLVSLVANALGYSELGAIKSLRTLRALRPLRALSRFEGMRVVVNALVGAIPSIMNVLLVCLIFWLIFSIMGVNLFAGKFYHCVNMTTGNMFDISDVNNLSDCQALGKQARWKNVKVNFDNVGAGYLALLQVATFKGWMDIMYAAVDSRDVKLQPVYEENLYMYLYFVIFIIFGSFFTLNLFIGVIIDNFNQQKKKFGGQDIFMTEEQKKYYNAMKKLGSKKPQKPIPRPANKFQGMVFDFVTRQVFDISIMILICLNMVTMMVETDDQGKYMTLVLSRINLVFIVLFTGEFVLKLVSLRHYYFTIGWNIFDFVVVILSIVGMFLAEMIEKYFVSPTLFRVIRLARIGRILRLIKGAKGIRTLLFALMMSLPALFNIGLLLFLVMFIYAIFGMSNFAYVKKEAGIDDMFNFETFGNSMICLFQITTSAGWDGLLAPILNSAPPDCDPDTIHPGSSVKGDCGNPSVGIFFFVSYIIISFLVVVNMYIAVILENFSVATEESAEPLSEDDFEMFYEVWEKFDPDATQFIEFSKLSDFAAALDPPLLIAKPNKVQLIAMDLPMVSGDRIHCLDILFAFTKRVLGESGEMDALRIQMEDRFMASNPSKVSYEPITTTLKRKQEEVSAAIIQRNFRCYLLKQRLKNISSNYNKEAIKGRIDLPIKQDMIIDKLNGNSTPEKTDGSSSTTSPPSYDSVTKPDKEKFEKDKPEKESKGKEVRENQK

Row | Compound | N of anticipatory resposnses [1, 4] | N of perseverative responses [1, 4] | N of anticipatory resposnses ([1]; 10 mg/Kg i.p. + vehicle) | N of perseverative responses ([1]; 10 mg/Kg i.p. + vehicle) | IC50 [2] | effect on amphetamine-chlordiazepoxide induced increase in locomotor activity [3] | IC50 (L-type calcium channels)
1 | CCCCOc1cccc(CCN(CC(=O)N(C)C)CC2CCOC2)c1.Cl (racemic) [Example 96, 2-[[2-(3-Butoxy-phenyl)-ethyl]-(tetrahydrofuran-3-ylmethyl)amino]-N,N-dimethyl-acetamide hydrochloride] | 3.7 ± 1.6 | 15.7 ± 3.1 | 3.3 ± 0.7 | 20.9 ± 1.3 | 3.1 µM | preventing the amphetamine-chlordiazepoxide induced increase in locomotor activity | 
2 | C[C@H](NCc1ccc(OCc2ccccc2F)cc1)C(N)=O [ralfinamide, (S)-(+)-2-[4-(2-fluoro-benzyloxy)-benzylamino]-propanamide, reference compound] |  |  |  |  | 15 µM |  | 26 µM
